Patent US20050008686A1, “Cochleate preparations of fragile nutrients” (priority 2003, published 2005)
Converted amounts (≈) assume the structure as drawn. Read-outs that look alike come from different tables or passages of the source.

Experiment: solubility of beta-carotene in potential solvents
Format: physicochemical
Details: for solubility: organic solvent or mixture
Excerpt: The present invention is based, at least in part, on the discovery that one or more solvents such as tetrahydrofuran (THF), can be employed to form an improved cochleate with fragile nutrients such as beta-carotene at desirable concentrations. Suitable solvents and solvent mixtures that can be employed in connection with the present invention and can readily be identified by a person of skill in the art employing the teachings provided herein and knowledge in the art. For example, beta-carotene was added to a variety of potential solvents, and was found not soluble in either water or DMSO, and slightly soluble in methyl pyrrolidone (less than 1 mg/ml). Heptane also was considered, but heptane is not miscible with water and thus cannot readily be employed in the formation of cochleates. […] Similarly, solvents can be identified for other fragile nutrients and lipids in accordance with the present invention.

## CC1=C(/C=C/C(C)=C/C=C/C(C)=C/C=C/C=C(C)/C=C/C=C(C)/C=C/C2=C(C)CCCC2(C)C)C(C)(C)CCC1 [beta-carotene]
Solvent methyl pyrrolidone, slightly soluble, read-out: solubility in methyl pyrrolidone
  solubility: < 1000 µg/mL
Solvent tetrahydrofuran (THF), read-out: solubility in THF
  solubility: 10000 µg/mL (≈ 18.6 mM)
Solvent DMSO
  solubility in DMSO: not soluble
Solvent water
  solubility in water: not soluble
